Values of other authors, collected in patent US8618066B1 (priority 2003, dated 2013).
No end group written: not given here.

Test system: Gram+ & Gram− bacteria, fungi, virus, mammalian/cancer cells
Settings: cited from earlier work

Substance	Activity
AC-AMP2: peptide, source Amaranthus caudatus (VGECVRGRCPSGMCCSQFGYCGKGPKYCGR; ends and bridges not checked; cysteine pairing not given here; listed as Amaranthus caudatus)	Gram+, Fungi
HNP-1 Defensin: peptide, source Human	Gram+ & Gram−, Virus, Fungi
GNCP-1: peptide, source Guinea pig (RRCICTTRTCRFPYRRLGTCIFQNRVYTFCC; GNCP-1; listed as Cavia cutleri)	Gram+ & Gram−, Virus, Fungi
SEQ ID No. 35: synthetic antifungal peptide, Table 1 (IFKLRF)	Fungi
SEQ ID No. 32: synthetic antifungal peptide, Table 1 (FFKLRF)	Fungi
SEQ ID No. 191: synthetic antifungal peptide, Table 1 (WCLFHGEGCW; listed as Cryphonectria parasitica)	Fungi
Dolabellanin B2: peptide, source Sea hare (SHQDCYEALHKCMASHSKPFSCSMKFHMCLQQQ; Dolabellanin B2; listed as Dolabella auricularia)	Gram+ & Gram−, Fungi
Ranatuerin-2CA: peptide, source Green frog (GLFLDTLKGAAKDVAGKLLEGLKCKIAGCKP; Rana clamitans; Ranatuerin-2CA)	Gram+ & Gram−, Fungi
SEQ ID No. 180: synthetic antifungal peptide, Table 1 (YNLEDHPQGDHPKLQLWHW)	Fungi
FRLKHI [SEQ ID No. 198]	Gram+ & Gram−, Fungi
Ranatuerin-2CB: peptide, source Green frog (GLFLDTLKGLAGKLLQGLKCIKAGCKP; Rana clamitans; Ranatuerin-2CB)	Gram+ & Gram−, Fungi
MBP-1: peptide, source Maize (RSGRGECRRQCLRRHEGQPWETQECMRRCRRRG; Zea mays; MBP-1)	Gram+ & Gram−, Fungi
Hepcidin 25: peptide, source Human (DTHFPICIFCCGCCHRSKCGMCCKT; Hepcidin 25; listed as Homo sapiens)	Fungi
Ranalexin-1CB: peptide, source Gree frog (FLGGLMKAFPAIICAVTKKC; Rana clamitans; Ranalexin-1CB)	Gram+ & Gram−, Fungi
NP-3A defensin: peptide, source Rabbit (GICACRRRFCPNSERFSGYCRVNGARYVRCCSRR; NP-3A defensin; listed as Oryctolagus cuniculus)	Gram+ & Gram−, Virus, Fungi
FRLHF [SEQ ID No. 199]	Gram+ & Gram−, Fungi
SEQ ID No. 196: synthetic antifungal peptide, Table 1 (WCTWKGQPCW; listed as Fusarium graminearum)	Fungi
Hexapeptide: peptide, source Bovine (RRWQWR; hexapeptide; listed as Bos taurus)	Gram+ & Gram−, Virus, Fungi,
BMAP-28: peptide, source Bovine (GGLRSLGRKILRAWKKYGPIIVPIIRIG; BMAP-28; listed as Bos taurus)	Gram+ & Gram−, Fungi
RatNP-3: peptide, source Rat (CSCRTSSCRFGERLSGACRLNGRIYRLCC; RatNP-3; listed as Rattus norvegicus)	Gram+ & Gram−, Virus, Fungi
Lactoferrin (Lf) peptide 2: antimicrobial peptide, Table 1 (FKCRRWQWRM; lactoferrin (Lf) peptide 2)	Fungi
SEQ ID No. 37: synthetic antifungal peptide, Table 1 (LFKLRF)	Fungi
SEQ ID No. 179: synthetic antifungal peptide, Table 1 (WHWLSFSKGQPMY; listed as Saccharomyces kluyveri)	Fungi
SEQ ID No. 189: synthetic antifungal peptide, Table 1 (QWCRIHGQSCW; listed as Neurospora crassa)	Fungi
GNCP-2: peptide, source Guinea pig (RCICTTRTCRFPYRRLGTCLFQNRVYTFCC; GNCP-2; listed as Cavia cutleri)	Gram+ & Gram−, Virus, Fungi
SEQ ID No. 47: synthetic antifungal peptide, Table 1 (WFKLRF)	Fungi

Substance	Activity
Neutrophil defensin 3 (HANP-3): peptide, source Golden hamster (VTCFCRRRGCASRERLIGYCRFGNTIYGLCCRR; Neutrophil defensin 3 (HANP-3); listed as Mesocricetus auratus)	Gram+, Fungi
SEQ ID No. 28: synthetic antifungal peptide, Table 1 (HRF)	Fungi
Histone H2b-3 (HLP-3) (Fragment): source Rainbow trout (PDPAKTAPKKKSKKAVT; Oncorhynchus mykiss; Histone H2B-3(HLP-3)(Fragment))	Fungi
Sativum defensin 1 (psd1): peptide, source Seed of Pea (KTCEHLADTYRGVCFTNASCDDHCKNKAHLISGTCHNWKCFCTQNC; Seed of pea defensin 1 (psd1); listed as Pisum sativum)	Fungi
Tracheal antimicrobial peptide: peptide, source Bovine (NPVSCVRNKGICVPIRCPGSMKQIGTCVGRAVKCCRKK; Tracheal antimicrobial peptide; listed as Bos taurus)	Gram+ & Gram−, Fungi
Antimicrobial peptide 1: peptide, source Common ice plant (AKCIKNGKGCREDQGPPFCCSGFCYRQVGWARGYCKNR; Antimicrobial peptide 1; listed as Mesembryanthemum crystallinum)	Gram+ & Gram−, Fungi
Nigrocin 1: peptide, source Rana nigromaculata (GLLDSIKGMAISAGKGALQNLLKVASCKLDKTC; Nigrocin 1; listed as Rana nigromaculata)	Gram+ & Gram−, Fungi
HNP-3 Defensin: peptide, source Human	Gram+ & Gram−, Virus, Fungi
P-18: antimicrobial peptide, Table 1 (KWKLFKKIPKFLHLAKKF; listed as Penaeus vannamei)	Gram+ & Gram−, Fungi, Cancer
SEQ ID No. 190: synthetic antifungal peptide, Table 1 (WHWLQLKPGQPMY; listed as Saccharomyces cerevisiae)	Fungi
Spingerin: peptide, source Pseudacanthotermes spiniger (HVDKKVADKVLLLKQLRIMRLLTRL; Pseudacanthotermas spiniger; Spingerin)	Gram+ & Gram−, Fungi
Ib-AMP4: peptide, source Impatiens balsamina (GRRCCGWGPGRRYCRRWC; Ib-antimicrobial peptidic agent4; listed as Impatiens balsamina)	Gram+ Fungi
SEQ ID No. 42: synthetic antifungal peptide, Table 1 (RFKLRF)	Fungi
AMP1 (MJ-AMP1): peptide, source Garden four-o'clock (QCIGNGGRCNENVGPPYCCSGFCLRQPGQGYGYCKNR; antimicrobial peptidic agent1 (MJ-antimicrobial peptidic agent1); listed as Mirabilis jalapa)	Gram+, Fungi
HNP-5 Defensin: peptide, source Human (QARATCYCRTGRCATRESLSGVCEISGRLYRLCCR; HNP-5 Defensin; listed as Homo sapiens)	Gram+ & Gram−, Fungi
Protegrin 4: peptide, source Pig (RGGRLCYCRGWICFCVGR; Protegrin 4; listed as Sus scrofa)	Gram+ & Gram−, Virus, Fungi
Buforin I: peptide, source Asian toad (AGRGKQGGKVRAKAKTRSSRAGLQFPVGRVHRLLRKGNY; Bufo bufo gargarizans; Buforin 1)	Gram+ & Gram−, Fungi
Penaeidin-1: peptide, source Penoeid shrimp (YRGGYTGPIPRPPPIGRPPLRLVVCACYRLSVSDARNCCIKFGSCCHLVK; Penaeidin-1; listed as Penaeus vannamei)	Gram+ & Gram−, Fungi
RQRVEELSKFSKKGAAARRRK [Misgurin]	Gram+ & Gram−, Fungi
Cecropin B: peptide, source Chinese oak silk moth (KWKIFKKIEKVGRNIRNGIIKAGPAVAVLGEAKAL; Cecropin B; listed as Antheraea pernyi)	Gram+ & Gram−, Fungi
Histatin 8: antimicrobial peptide, Table 1 (KFHEKHHSHRGY; Histatin 8)	Gram+ & Gram−, Fungi
Thanatin: peptide, source Podisus maculiventris (GSKKPVPIIYCNRRTGKCQRM; listed as Podisus maculiventris)	Gram+ & Gram−, Fungi
Neutrophil defensin 1 (HANP-1): peptide, source Golden hamster (VTCFCRRRGCASRERHIGYCRFGNTIYRLCCRR; Neutrophil defensin 1 (HANP-1); listed as Mesocricetus auratus)	Gram+, Fungi
SEQ ID No. 34: synthetic antifungal peptide, Table 1 (HFKLRF)	Fungi
Penaeidin-4a: peptide, source Penoeid shrimp (HSSGYTRPLPKPSRPIFIRPIGCDVCYGIPSSTARLCCFRYGDCCHR; Penaeidin-4a; listed as Penaeus vannamei)	Gram+ & Gram−, Fungi

Same assay, conditions: classes of organisms/cells the peptide is active against; cited from earlier work

Substance	Activity
ADENOREGULIN: peptide, source Two coloured leaf frong (GLWSKIKEVGKEAAKAAAKAAGKAALGAVSEAV; Phyllomedusa bicolor; Adenoregulin)	Gram+ & Gram−, Fungi
Tricholongin: peptide, source Trichoderma longibrachiatum (AGFAAQAAASLAPVAAQQL; Tricholongin; listed as Trichoderma longibrachiatum)	Gram+ & Gram−, Fungi
Dhvar5: peptide, source Synthesis (LLLFLLKKRKKRKY; Synthesis dhvar5)	Gram+ & Gram−, Fungi
